Assay results reported in patent publication US5565462A, “Composition for topical treatment of psoriasis and atopic dermatitis comprising a xanthine derivative” (Teva Pharmaceutical Industries, Ltd., priority 1991, dated 1996).

Legend:
[1] = tested on: psoriasis lesions; test: Clinical trial in psoriasis, 2% pentoxifylline cream vs placebo, right-left comparison, PASI; assay type: in vivo, human patients; details: for decrease in PASI: 2% cream twice daily
Protocol: A clinical trial was performed comparing a cream composition of 2% pentoxifylline (formulation A of Example 1) to placebo. The trial was randomized, double blind, placebo controlled, right-left comparison within patient design.
Two similar plaque areas of psoriasis (i.e. both legs or forearms), were selected for treatment in each patient. In each patient one area on one side of the body was treated with 2% pentoxifylline formulated as in Example 1 and the other area on the other side of the body was treated with placebo cream formulated identically but without the pentoxifylline. The cream (formulation A in Example 1) was applied by the patient twice daily.
Patients stopped all forms of topical psoriatic treatment two weeks before entry into the study.
Systemic psoriatic treatments and phototherapy were stopped one month before entry into the study.
The dermatological assessment was performed as follows. The dermatologist measured the area of the lesion in cm^2. The severity of each lesion was evaluated by grading erythema, scaling and thickness on a 0-4 scale where 0=none, 1=slight, 2=moderate, 3=severe and 4=exceptionally severe.
Based on these measurements the Psoriasis Area Severity Index (PASI) was calculated for each of the 2 lesions on each patient as follows:
PASI=Area x (Erythema+Thickness+Scaling)

[2] = tested on: atopic dermatitis; test: Clinical trial in atopic dermatitis, 2% pentoxifylline cream vs vehicle, bilateral comparison; assay type: in vivo, human patients; details: 2% cream twice a day, four weeks, seven patients aged 3-10 years
Protocol: A randomized double blind, vehicle controlled, bilateral comparison study was performed, to determine the effect of pentoxifylline (PTX) in the treatment of atopic dermatitis. The study medication contained 2% pentoxifylline in an oil-in-water cream vehicle, and the control treatment consisted of the same vehicle without the pentoxifylline. The exact formulations appear in Table 7.
Seven patients (aged 3-10 years) were enrolled in the trial and evaluated for pruritus, erythema, dryness/scaling and exudate. Pentoxifylline cream, or the placebo (the identical cream, but without the pentoxifylline) were dispensed in identical tubes that were marked for application to right and left sides. Patients were instructed to apply medication twice a day (morning and evening) for four weeks.

[3] = tested on: human psoriatic fibroblasts; test: Inhibition of human psoriatic fibroblast proliferation; assay type: cell-based; details: Homo sapiens, Fibroblast
Protocol: PTX and PPF, alone as well as PTX in combination with other drugs were tested.
Human psoriatic fibroblasts were obtained from skin biopsies of 5 individuals with plaque psoriasis. Cells in the 3-7th passages were used for the experiments. Human psoriatic fibroblasts (4×10^3 -6×10^3 cells) were added in 24-well plates and cultured in Dulbecco's Modified Eagle's Medium (DMEM) supplemented with 10% fetal calf serum, 2 mM L-glutamine, 100 u/ml penicillin, 100 μg/ml streptomycin (DMEM+) at 5% CO2 and 95% humidity at 37° C.
After 3 days, medium was replaced with fresh DMEM+(control) or with medium containing various concentrations of compounds alone or in combination with pentoxifylline and incubation was continued for additional 3 days. Stock solutions (10^-1 -10^-2 M) of the compounds tested were made in ethanol. For these compounds special control (DMEM+ with 1% ethanol) was made. The compounds tested together with pentoxifylline were 3-heptanone, 3,3-dimethylbutyric acid, lipoic acid, 1,25-dihydroxyvitamin D3 betamethasone dipropionate and hydrocortisone-17-butyrate.
On the last day of experiments, the medium was aspirated and the cells were obtained by trypsinization. The number of cells in each well was counted by the use of an hemocytometer.
The percentage of inhibition of fibroblast proliferation was calculated according to the formula: [formula] and the results are shown in Tables 3 and 4.

[4] = tested on: human psoriatic skin transplants; test: Topical treatment of human psoriatic skin transplanted to nude mice (epidermal thickness / acanthosis); assay type: in vivo, human skin on outbred Balb/C nude mice
Description: Human psoriatic skin from psoriatic patients was transplanted to nude mice essentially according to the method of G. Kreuger et al., Prog. in Dermatol. […] The donors had stable plaque type psoriasis for at least one year preceding biopsy and had not received systemic anti-psoriatic therapy for the 4 weeks preceding biopsy. They had also not received topical therapy or U.V. therapy for the two weeks preceding biopsy. […] In this method the area (A) of the psoriasis in four main body parts (head (H), trunk (T), upper extremities (U) and lower extremities (L)) is assigned a value from 0-6 depending on the extent of psoriasis where O reflects no involvement and 6 reflects 90-100% involvement. The severity of the lesion is assessed based on three parameters: Erythema (E), Desquamation (scaling) (D) and Infiltration (I). The severity of each of these parameters is measured on a scale of 0-4 where 0 is no involvement and 4 is very sever. The total severity score is calculated according to the following formula: […]
Split thickness biopsies of nonpustular psoriatic human tissue, 4×5 cm and 0.4 mm thick were obtained from the edge of established plaques from various donor patients. […] The grafts were allowed to heal for one week prior to topical application of the test preparations.
Outbred Balb/C nude mice, 2 to 3 months of age were used in this study. The mice were obtained from the pathogen free animal breeding facility at the University of Tel Aviv (Israel) and were raised in the pathogen-free animal facility at the Faculty of Medicine, Technion-Israel Institute of Technology, Haifa, Israel.
On the day following the end of treatment the severity of the psoriatic lesion was assessed and then the animals were sacrificed and the entire graft was excised and divided into two equal sections. One section was used to assess changes in the rate of proliferation by autoradiography (tritiated thymidine incorporation) while the other section was sectioned for microscopic histological assessment, including acanthosis and parakeratosis.
In another series of experiments, human psoriatic skin of various severities was transplanted on each of 28 nude mice. The graft area was treated with various preparations as described above.
The treatments were applied as creams and were administered as described above.

[5] = tested on: human peripheral blood mononuclear cells (lymphocytes); test: Inhibition of the mitogenic (PHA) stimulation of human lymphocytes (PBMC), [3H]thymidine; assay type: cell-based
Protocol: Buffy coats from the Beilinson Medical Center Blood Bank or 20 mL samples of heparinized venous blood from healthy or atopic donors were used as a source for human peripheral blood mononuclear (PBM) cells. PBM cells were separated by Ficoll-Hypaque density gradient centrifugation. […] The nonadhering cells were stirred gently and carefully collected.
PHA (1 μg/mL), indomethacin (5 μg/mL) and various xanthine derivatives were added at initiation of culture. Indomethacin was dissolved in ethanol. […] [methyl-^3 H]Thymidine (1 μCi/well) was added at 68 h, and the cells were harvested 4 h later using an automated cell harvester (Dynatech, Alexandria, Va.). Unless otherwise stated, all cultures were performed in triplicate.

CC(=O)CCCCn1c(=O)c2c(ncn2C)n(C)c1=O [Pentoxifylline, 3,7-dimethyl-1-(5-oxohexyl)-xanthine]
decrease in PASI ([1]; Patient 1, 1.5 weeks, placebo side 0%): 58% | decrease in PASI ([1]; Patient 2, 2 weeks, placebo side 34%): 53% | decrease in PASI ([1]; Patient 3, 2 weeks, placebo side 45%): 73% | decrease in PASI ([1]; Patient 3, 6 weeks, placebo side 56%): 90% | decrease in PASI ([1]; Patient 4, 6 weeks, placebo side 73%): 91% | decrease in PASI ([1]; Patient 4, 8 weeks, placebo side 57%): 88% | decrease in PASI ([1]; Patient 5, 2 weeks, placebo side 25%): 73% | effectiveness in the treatment of psoriatic lesions (in words) ([1]; topical, summary of clinical trials): very effective therapeutic for the treatment of psoriatic lesions | improvement of pruritus, erythema, dryness/scaling and exudate (in words) [2]: significantly improved each of the four symptoms evaluated | inhibition at 1000 µM ([3]; PTX alone, 10^-3 M, Table 3): 16.9% | inhibition at 100 µM ([3]; compound alone, 10^-4 M, Table 4): 5.9% | % Improvement (Decrease in Thickness) ([4]; 2% PTX cream, 7 days, donor patient 3 (PASI 7.6)): 40% | % Improvement (Decrease in Thickness) ([4]; 2% PTX cream, 7 days, donor patient 4 (PASI 17.6)): 22% | % Improvement (Decrease in Thickness) ([4]; 2% PTX cream, 7 days, donor patient 6 (PASI 3.8), placebo 0): 30% | Average Improvement (decrease in epidermal thickness) ([4]; 2% PTX cream, 7 days, placebo 5%): 31% | Epidermal Thickness (Acanthosis) after 7 days treatment ([4]; 2% PTX cream, donor patient 3 (PASI 7.6), before treatment 46 μm): 28 μm | Epidermal Thickness (Acanthosis) after 7 days treatment ([4]; 2% PTX cream, donor patient 4 (PASI 17.6), before treatment 54 μm): 42 μm | Epidermal Thickness (Acanthosis) after 7 days treatment ([4]; 2% PTX cream, donor patient 6 (PASI 3.8), before treatment 55 μm): 39 μm | SUCCESS RATIO (decrease of at least 15% in epidermal thickness) ([4]; 2% pentoxifylline cream (Example 1A), 7 days topical, placebo 0/6): 6/10 | effectiveness in treating psoriasis (in words) ([4]; experiment of Table 1, transplanted skin): almost as effective as steroids in treating psoriasis and far more effective than dyphylline | effectiveness in treating psoriasis (in words) ([4]; experiment of Table 2, 28 nude mice): almost as effective as topical steroids in treating psoriasis and far more effective than dyphylline | effectiveness in the treatment of psoriasis (in words) ([4]; summary of the animal model experiments): effective in the treatment of psoriasis | inhibition at 1000 µM ([5]; Homo sapiens, Lymphocyte, 1 × 10^-3 M, lymphocytes from healthy volunteers, read-out: net inhibitory effect on the mitogenic stimulation of human lymphocytes): 70% | inhibition at 300 µM ([5]; Homo sapiens, Lymphocyte, 3 × 10^-4 M, lymphocytes from healthy volunteers, read-out: net inhibitory effect on the mitogenic stimulation of human lymphocytes): 46% | inhibition of the mitogenic stimulation compared with the other xanthine derivatives (in words) ([5]; vs theophylline and diphylline, healthy volunteers): inhibited the mitogenic stimulation to a far greater effect than the other xanthine derivatives
